Blank lines part the entries; values can stand above or below the compound they belong to.
What was measured:
[1] = tested on: MDA-MB-231; experiment: Cell growth inhibition, breast cancer cell line MDA-MB-231; format: cell-based; details: MDA-MB-231, breast cancer cell line
Experimental: (§1) KB cells were purchased from Human Science Research Resource Bank (Osaka, Japan). The cells were cultured in Earle's MEM (GIBCO BRL) containing 10% FBS (Bio Whittaker) at 37° C. under 5% CO2. After 24 hours the test compounds were added to the cells at the indicated concentrations. 72 hours later the cells were stained with tripan blue and counted manually. IC50 is calculated as the concentration (aqueous solution) of complex required to inhibit growth of cells by 50%.
(§2) In a similar fashion a representative number of examples of compounds of the invention were tested for their ability to inhibit the growth/proliferation of cell types representing a number of different cancers. The results are provided in Tables 4-13, below, which provide the Inhibition Constants (IC50, μM) for each compound across various cell lines.

[2] = tested on: DMS114; experiment: Cell growth inhibition, lung cancer cell line DMS114; format: cell-based
Experimental: as §1, §2

[3] = tested on: MKN7; experiment: Cell growth inhibition, human stomach cancer MKN7; format: cell-based
Experimental: as §1, §2

[4] = tested on: HCT-15; experiment: Cell growth inhibition, colon cancer cell line HCT-15; format: cell-based; details: HCT-15, colon cancer cell line
Experimental: as §1, §2

[5] = tested on: NCI-H226; experiment: Cell growth inhibition, lung cancer cell line NCI-H226; format: cell-based
Experimental: as §1, §2

[6] = tested on: NCI-H522; experiment: Cell growth inhibition, lung cancer cell line NCI-H522; format: cell-based
Experimental: as §1, §2

[7] = tested on: A549; experiment: Cell growth inhibition, lung cancer cell line A549; format: cell-based
Experimental: as §1, §2

[8] = tested on: SNB-75; experiment: Cell growth inhibition, brain cancer cell line SNB-75; format: cell-based; details: SNB-75, brain cancer cell line
Experimental: as §1, §2

[9] = tested on: KM-12; experiment: Cell growth inhibition, colon cancer cell line KM-12; format: cell-based; details: KM-12, colon cancer cell line
Experimental: as §1, §2

[10] = tested on: HCC2998; experiment: Cell growth inhibition, colon cancer cell line HCC2998; format: cell-based
Experimental: as §1, §2

[11] = tested on: SF-295; experiment: Cell growth inhibition, brain cancer cell line SF-295; format: cell-based; details: SF-295, brain cancer cell line
Experimental: as §1, §2

[12] = tested on: RXF-631L; experiment: Cell growth inhibition, renal cancer RXF-631L; format: cell-based
Experimental: as §1, §2

[13] = tested on: SF-268; experiment: Cell growth inhibition, brain cancer cell line SF-268; format: cell-based; details: SF-268, brain cancer cell line
Experimental: as §1, §2

[14] = tested on: OVCAR-8; experiment: Cell growth inhibition, ovarian cancer cell line OVCAR-8; format: cell-based; details: OVCAR-8, ovarian cancer cell line
Experimental: as §1, §2

[15] = tested on: all cell types (cancer cell lines of Tables 4-12); experiment: Cell growth inhibition, mean over all cell types of the panel; format: cell-based; details: mean over all cell lines of Tables 4-12
Experimental: as §1, §2

[16] = tested on: OVCAR-5; experiment: Cell growth inhibition, ovarian cancer cell line OVCAR-5; format: cell-based; details: OVCAR-5, ovarian cancer cell line
Experimental: as §1, §2

[17] = tested on: PC-3; experiment: Cell growth inhibition, prostatic cancer PC-3; format: cell-based; details: PC-3, prostatic cancer
Experimental: as §1, §2

[18] = tested on: MCF-7; experiment: Cell growth inhibition, breast cancer cell line MCF-7; format: cell-based; details: MCF-7, breast cancer cell line
Experimental: as §1, §2

[19] = tested on: MKN1; experiment: Cell growth inhibition, human stomach cancer MKN1; format: cell-based
Experimental: as §1, §2

[20] = tested on: DU-145; experiment: Cell growth inhibition, prostatic cancer DU-145; format: cell-based, human; details: DU-145, prostatic cancer
Experimental: as §1, §2

[21] = tested on: DMS273; experiment: Cell growth inhibition, lung cancer cell line DMS273; format: cell-based
Experimental: as §1, §2

[22] = tested on: OVCAR-3; experiment: Cell growth inhibition, ovarian cancer cell line OVCAR-3; format: cell-based; details: OVCAR-3, ovarian cancer cell line
Experimental: as §1, §2

[23] = tested on: MKN45; experiment: Cell growth inhibition, human stomach cancer MKN45; format: cell-based
Experimental: as §1, §2

[24] = tested on: MKN28; experiment: Cell growth inhibition, human stomach cancer MKN28; format: cell-based
Experimental: as §1, §2

[25] = tested on: HBC-4; experiment: Cell growth inhibition, breast cancer cell line HBC-4; format: cell-based; details: HBC-4, breast cancer cell line
Experimental: as §1, §2

[26] = tested on: ACHN; experiment: Cell growth inhibition, renal cancer ACHN; format: cell-based
Experimental: as §1, §2

[27] = tested on: HCT-116; experiment: Cell growth inhibition, colon cancer cell line HCT-116; format: cell-based; details: HCT-116, colon cancer cell line
Experimental: as §1, §2

[28] = tested on: HT-29; experiment: Cell growth inhibition, colon cancer cell line HT-29; format: cell-based; details: HT-29, colon cancer cell line
Experimental: as §1, §2

[29] = tested on: NCI-H460; experiment: Cell growth inhibition, lung cancer cell line NCI-H460; format: cell-based
Experimental: as §1, §2

[30] = tested on: OVCAR-4; experiment: Cell growth inhibition, ovarian cancer cell line OVCAR-4; format: cell-based; details: OVCAR-4, ovarian cancer cell line
Experimental: as §1, §2

[31] = tested on: NCI-H23; experiment: Cell growth inhibition, lung cancer cell line NCI-H23; format: cell-based
Experimental: as §1, §2

[32] = tested on: SK-OV-3; experiment: Cell growth inhibition, ovarian cancer cell line SK-OV-3; format: cell-based; details: SK-OV-3, ovarian cancer cell line
Experimental: as §1, §2

[33] = tested on: HBC-5; experiment: Cell growth inhibition, breast cancer cell line HBC-5; format: cell-based; details: HBC-5, breast cancer cell line
Experimental: as §1, §2

[34] = tested on: BSY-1; experiment: Cell growth inhibition, breast cancer cell line BSY-1; format: cell-based; details: BSY-1, breast cancer cell line
Experimental: as §1, §2

[35] = tested on: MKN74; experiment: Cell growth inhibition, human stomach cancer MKN74; format: cell-based
Experimental: as §1, §2

[36] = tested on: SNB-78; experiment: Cell growth inhibition, brain cancer cell line SNB-78; format: cell-based; details: SNB-78, brain cancer cell line
Experimental: as §1, §2

[37] = tested on: LOX-IMVI; experiment: Cell growth inhibition, melanoma cell line LOX-IMVI; format: cell-based
Experimental: as §1, §2

[38] = tested on: SF-539; experiment: Cell growth inhibition, brain cancer cell line SF-539; format: cell-based; details: SF-539, brain cancer cell line
Experimental: as §1, §2

[39] = tested on: U251; experiment: Cell growth inhibition, brain cancer cell line U251; format: cell-based
Experimental: as §1, §2

[40] = tested on: St-4; experiment: Cell growth inhibition, human stomach cancer St-4; format: cell-based; details: St-4, human stomach cancer
Experimental: as §1, §2

[41] = tested on: KB cells; experiment: In vitro assay, cell growth inhibition (KB cells); format: cell-based; details: 72 hours
Experimental: as §1

[42] = In vitro assay, adsorption of Pt complexes to hydroxyapatite; format: binding
Experimental: Each of a 5, 10, 15, 25, 35, and 100 mg sample of hydroxyapatite (Bio-Rad Macro-Prep Ceramic Hydroxyapatite, type I, 40 μm) was added to 2 ml of HEPES buffer at pD=7.8 and the resulting mixture was shaken for about 24 h at 37° C. Then, 100 μl of each complexes dissolved in HEPES buffer at pD=7.8 was added and the mixtures were shaken for 1.5 h at 37° C. All suspensions were filtered, and these solutions were measured by ^31P NMR (Varian VXR-300S) and Atomic Absorption Spectrometry (Hitachi Z-5710 AAS) of platinum or, for carboplatin, by ^1H NMR. Percentage adsorption to hydroxyapatite was calculated as follows. From NMR: Binding percentage/%=[(A−B)/A]×100 From AAS: Binding percentage/%=[(C−D)/C]×100 • A=the integration intensity of Pt(II) complex • B=the integration intensity of Pt(II) complex after reacted with hydroxyapatite • C=the concentration of Pt(II) complex • D=the concentration of Pt(II) complex after reacted with hydroxyapatite

Compound: Pt(dach)-IP6 [Example 10]
log10 IC50 (M) [1]: -4.67
log10 IC50 (M) [2]: -4.26
log10 IC50 (M) [3]: -4.17
log10 IC50 (M) [4]: -5.14
log10 IC50 (M) [5]: -5.08
log10 IC50 (M) [6]: -5.17
log10 IC50 (M) [7]: -5.21
log10 IC50 (M) [8]: -4.86
log10 IC50 (M) [9]: -4.23
log10 IC50 (M) [10]: -4.7
log10 IC50 (M) [11]: -4.67
log10 IC50 (M) [12]: -4.39
log10 IC50 (M) [13]: -4.52
log10 IC50 (M) [14]: -4.57
log10 IC50 (M) [15]: -4.86
log10 IC50 (M) [16]: -4.78
log10 IC50 (M) [17]: -4.46
log10 IC50 (M) [18]: -5.32
log10 IC50 (M) [19]: -4.89
log10 IC50 (M) [20]: -5.03
log10 IC50 (M) [21]: -6.27
log10 IC50 (M) [22]: -4.9
log10 IC50 (M) [23]: -6.21
log10 IC50 (M) [24]: -4.19
log10 IC50 (M) [25]: -5.07
log10 IC50 (M) [26]: -5.21
log10 IC50 (M) [27]: -5.33
log10 IC50 (M) [28]: -4.65
log10 IC50 (M) [29]: -5.19
log10 IC50 (M) [30]: -5.01
log10 IC50 (M) [31]: -4.95
log10 IC50 (M) [32]: -4.28
log10 IC50 (M) [33]: -5.4
log10 IC50 (M) [34]: -4.56
log10 IC50 (M) [35]: -4.15
log10 IC50 (M) [36]: -4.48
log10 IC50 (M) [37]: -5.31
log10 IC50 (M) [38]: -5.14
log10 IC50 (M) [39]: -4.69
log10 IC50 (M) [40]: -4.3

IC50 ([41]; concentration to inhibit growth of cells by 50%): 2750 nM
Compound: cis-Pt(NH3)2Cl2
KB cells remaining/growth in percent (Table 2, untitled) ([41]; 1 μg/ml): 17.0%
KB cells remaining/growth in percent (Table 2, untitled) ([41]; 3 μg/mL): 13.4%
KB cells remaining/growth in percent (Table 1, untitled) ([41]; 5 μM): 28.20%
KB cells remaining/growth in percent (Table 2, untitled) ([41]; 10 μg/mL): 3.0%
KB cells remaining/growth in percent (Table 1, untitled) ([41]; 15 μM): 13.80%
KB cells remaining/growth in percent (Table 2, untitled) ([41]; 30 μg/mL): 2.2%
KB cells remaining/growth in percent (Table 1, untitled) ([41]; 50 μM): 6.78%
KB cells remaining/growth in percent (Table 2, untitled) ([41]; 100 μg/mL): 1.6%
KB cells remaining/growth in percent (Table 1, untitled) ([41]; 150 μM): 4.34%
KB cells remaining/growth in percent (Table 1, untitled) ([41]; 500 μM): 3.52%

Compound: [NH2][Pt]1([NH2])[O]P(=O)(O)CP(=O)(O)[O]1 [Example 1, cis-Pt(NH3)2(MDP)]
adsorption percentage to hydroxyapatite ([42]; 100 mg of hydroxyapatite, HEPES buffer pD=7.8, 1.5 h, 37° C.): 69.3%
adsorption to hydroxyapatite, comparison in words ([42]; FIGS. 1 and 2, 31P NMR, 1H NMR, AAS): adsorbed quite significantly more than carboplatin
